One data set concerns treated eyes (right eye). The note with it: rabbit, in vivo.
The subject of data set [1] is rabbit coronary microvessel endothelium. The conditions noted are these: cited from earlier work.
A short description of data set [2]: Toxicokinetic study: plasma DSP and DEX by LC-MS after single device application. The note with it: after DSP application via device; all four regimens. The format is in vivo, New Zealand White rabbits.
Procedure: For the toxicokinetic study, there were four groups of rabbit. […] Blood was collected and processed for plasma at predose, 5, 30, 60, 120, 240, and 360 minutes, and 24, 48, 72, 96, and 168 hours after administration.
One drop of sterile proparacaine hydrochloride (a local anesthetic) was put on the eye (to be treated) 5 minutes before dose administration. […] The position of the device was checked to ensure that the active agent matrix was in immediate contact with the white part of the eye but not the cornea. Digital timers were used for accurate application times (i.e., 5, 10, or 20 minutes). After the given application duration, the applicator was carefully removed from the eye.
Approximately 1 mL of blood was collected by direct venipuncture of the jugular vein with a 3 mL syringe and 21 GA×1″ needle. […]
Briefly, the samples were assayed by Shimadzu SCL-10A controller with LC-10AD pump. […] The limit of quantitation (LOQ) of this method was 1 ng/mL.
Toxicokinetic data analysis was based on standard noncompartmental pharmacokinetic methods. […] The maximum observed plasma concentration (Cmax) was determined by visual estimation from the data plot. Area under the plasma concentration vs. time curve from 0 to the time of the last measurable concentration (AUC) was calculated by the linear trapezoidal method. […]

Structures are written as SMILES. Where “and” joins values, the source holds several entries; their conditions need not be identical. Equal values may be shown once.

Procedure for treated eyes (right eye): Ketamine hydrochloride injectable USP (100 mg/mL) and sodium chloride 0.9% USP were from Hospira, Inc. (Lake Forest, Ill.); proparacaine hydrochloride ophthalmic solution was from Bausch & Lomb (Tampa, Fla.); cyclopentolate hydrochloride ophthalmic solution was from Alcon Laboratories (Fort Worth, Tex.); xyrazine and potassium chloride (KCl) were from Sigma-Aldrich (St. Louis, Mo.). Syringes and needles were from Becton, Dickinson and Company (Franklin Lakes, N.J.). The binocular indirect ophthalmoscope used was the Keeler All Pupil II from Keeler Instruments (Broomall, Pa.) and it was complemented with the double aspheric lens 20D/50 mm for posterior chamber examination from Volk Optical Inc (Mentor, Ohio). Young adult New Zealand White rabbits each weighing 3-4 kg were obtained from Western Oregon Rabbit Co. (Philomath, Oreg.). This study complied with the ARVO Statement for the use of Animals in Ophthalmic and Vision Research and was approved by The University of Utah Institutional Animal Care and Use Committee (Salt Lake City, Utah). All animals were acclimated and observed for health issues for at least two weeks prior to being used in the study.
For the ocular toxicity study, there were four groups. […]
Body weights of the animal were taken upon arrival, and then monthly. […] Observations on the anterior and posterior segments of the eye were made, graded, and recorded. […]

`C[C@@H]1C[C@H]2[C@@H]3CCC4=CC(=O)C=C[C@]4(C)[C@@]3(F)[C@@H](O)C[C@]2(C)[C@@]1(O)C(=O)COP(=O)(O)O` [DSP, Dexamethasone sodium phosphate]: in the data set on treated eyes (right eye), the “Ocular findings in treated eyes (conjunctival injection, discharge, corneal haze)” value was “transient and mild in nature”.
For `C[C@@H]1C[C@H]2[C@@H]3CCC4=CC(=O)C=C[C@]4(C)[C@@]3(F)[C@@H](O)C[C@]2(C)[C@@]1(O)C(=O)CO` [DEX, dexamethasone], in data set [1], the “Concentration that can inhibit prostaglandin release” value is 10^−7 M and ~40 ng/mL. Further, the “Tmax of DEX in plasma” value in data set [2] worked out at 30 min.
